Source: PubChem BioAssay (NCI)
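A five-concentration, 48-hour dose response in 96-well plates underlies each endpoint, interpolated linearly between surrounding concentrations. GI50 = concentration required for 50% inhibition of growth. Definition used: TGI = concentration required for complete inhibition of growth.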

Key:
Assay in all cases: DTP human tumour cell line panel, 48 h
[1] = test system: HOP-92 NSCLC
[2] = test system: OVCAR-8 ovarian
[3] = test system: NCI-H522 lung
[4] = test system: EKVX NSCLC
[5] = test system: NCI-H226 lung
[6] = test system: SK-MEL-2 melanoma
[7] = test system: KM12 colon
[8] = test system: HS 578T breast
[9] = test system: SK-OV-3 ovarian
[10] = test system: CCRF-CEM leukemia
[11] = test system: NCI/ADR-RES ovarian
[12] = test system: CAKI-1 renal
[13] = test system: UACC-257 melanoma
[14] = test system: A549 NSCLC
[15] = test system: HT29 colon
[16] = test system: TK-10 renal
[17] = test system: NCI-H23 lung
[18] = test system: SK-MEL-5 melanoma
[19] = test system: ACHN renal
[20] = test system: COLO 205 colon
[21] = test system: HCT-15 colon
[22] = test system: MDA-MB-231 breast
[23] = test system: BT-549 breast
[24] = test system: 786-0 renal
[25] = test system: MOLT-4 leukemia
[26] = test system: HOP-62 NSCLC
[27] = test system: UO-31 renal
[28] = test system: SF-268 CNS
[29] = test system: HL-60(TB) leukemia
[30] = test system: MDA-MB-435
[31] = test system: SR leukemia
[32] = test system: PC-3 prostate
[33] = test system: SNB-75 CNS
[34] = test system: SNB-19 CNS
[35] = test system: OVCAR-3 ovarian
[36] = test system: OVCAR-5 ovarian
[37] = test system: M14 melanoma
[38] = test system: RPMI-8226 leukemia
[39] = test system: U251 CNS
[40] = test system: SK-MEL-28 melanoma
[41] = test system: SW-620 colon
[42] = test system: UACC-62 melanoma
[43] = test system: MCF7 breast
[44] = test system: MALME-3M melanoma
[45] = test system: HCC-2998 colon
[46] = test system: SF-295 CNS
[47] = test system: RXF 393 renal
[48] = test system: IGROV1 ovarian
[49] = test system: HCT-116 colon
[50] = test system: SF-539 CNS
[51] = test system: NCI-H460 lung
[52] = test system: K-562 leukemia
[53] = test system: DU-145 prostate
[54] = test system: A498 renal
[55] = test system: OVCAR-4 ovarian
[56] = test system: SN12C renal
[57] = test system: LOX IMVI melanoma

Compound O=S(=O)(O)c1ccc(N=Nc2ccc(N=Nc3c(O)ccc4cc(S(=O)(=O)O)ccc34)cc2)cc1 has a TGI [1] of over 100 µM, a TGI [2] of over 100 µM and a TGI [3] of over 100 µM. The TGI [4] was over 100 µM, the TGI [5] was over 100 µM and the TGI [6] was over 100 µM. The TGI [7] was over 100 µM, the TGI [8] was over 100 µM and the TGI [9] was over 100 µM. For the same compound, the TGI [10] was over 100 µM, the TGI [11] was over 100 µM and the TGI [12] was over 100 µM. The TGI [13] was over 100 µM, the TGI [14] was over 100 µM and the TGI [15] was over 100 µM. It also gave a TGI [16] of over 100 µM, a TGI [17] of over 100 µM and a TGI [18] of over 100 µM. For the same compound, the TGI [19] was over 100 µM, the TGI [20] was over 100 µM and the TGI [21] was over 100 µM. The TGI [22] was over 100 µM, the TGI [23] was over 100 µM and the TGI [24] was over 100 µM. The TGI [25] was over 100 µM, the TGI [26] was over 100 µM and the TGI [27] was over 100 µM. It also gave a TGI [28] of over 100 µM, a TGI [29] of over 100 µM and a TGI [30] of over 100 µM. The TGI [31] was over 100 µM, the TGI [32] was over 100 µM and the TGI [33] was over 100 µM. For the same compound, the TGI [34] was over 100 µM, the TGI [35] was over 100 µM and the TGI [36] was over 100 µM. It also gave a TGI [37] of over 100 µM, a TGI [38] of over 100 µM and a TGI [39] of over 100 µM. It also gave a TGI [40] of over 100 µM, a TGI [41] of over 100 µM and a TGI [42] of over 100 µM. The TGI [43] was over 100 µM, the TGI [44] was over 100 µM and the TGI [45] was over 100 µM. The TGI [46] was over 100 µM, the TGI [47] was over 100 µM and the TGI [48] was over 100 µM. The TGI [49] was over 100 µM, the TGI [50] was over 100 µM and the TGI [51] was over 100 µM. For the same compound, the TGI [52] was over 100 µM.

In the case of CCOC(=O)c1cc(C(=O)c2ccc(Cl)cc2)n2ccc(-c3cc[n+](CC(=O)c4ccc(OC)cc4)cc3)cc12, the GI50 [1] is reported as 1.49 µM, the TGI [1] is reported as 3.17 µM and the GI50 [3] is reported as 1.93 µM. It also gave a TGI [3] of 3.89 µM, a GI50 [4] of 1.69 µM and a TGI [4] of 3.5 µM. It also gave a GI50 [6] of 2.04 µM, a TGI [6] of 4.36 µM and a GI50 [8] of 1.81 µM. For the same compound, the TGI [8] was 4.38 µM, the GI50 [9] was 2.01 µM and the TGI [9] was 3.62 µM. For the same compound, the GI50 [11] was 3.16 µM, the TGI [11] was 33 µM and the GI50 [13] was 2.21 µM. For the same compound, the TGI [13] was 4.53 µM, the GI50 [16] was 1.76 µM and the TGI [16] was 3.37 µM. For the same compound, the GI50 [17] was 1.84 µM, the TGI [17] was 3.74 µM and the GI50 [18] was 1.77 µM. The TGI [18] was 3.42 µM, the GI50 [19] was 1.78 µM and the TGI [19] was 3.31 µM. It also gave a GI50 [21] of 1.64 µM, a TGI [21] of 3.6 µM and a GI50 [22] of 1.59 µM. It also gave a TGI [22] of 3.25 µM, a GI50 [27] of 1.47 µM and a TGI [27] of 2.99 µM. It also gave a GI50 [53] of 1.69 µM, a TGI [53] of 3.2 µM and a GI50 [30] of 1.86 µM. The TGI [30] was 3.67 µM, the GI50 [33] was 1.47 µM and the TGI [33] was 3.09 µM. It also gave a GI50 [34] of 1.83 µM, a TGI [34] of 3.73 µM and a GI50 [35] of 1.88 µM. For the same compound, the TGI [35] was 3.65 µM, the GI50 [36] was 1.82 µM and the TGI [36] was 3.69 µM. The GI50 [39] was 1.7 µM, the TGI [39] was 3.54 µM and the GI50 [40] was 1.89 µM. It also gave a TGI [40] of 3.74 µM, a GI50 [54] of 1.6 µM and a TGI [54] of 3.17 µM. The GI50 [41] was 1.38 µM, the TGI [41] was 3.27 µM and the GI50 [42] was 1.82 µM. For the same compound, the TGI [42] was 3.52 µM, the GI50 [43] was 1.4 µM and the TGI [43] was 3.36 µM. It also gave a GI50 [55] of 1.68 µM, a TGI [55] of 3.4 µM and a GI50 [56] of 1.83 µM. It also gave a TGI [56] of 3.59 µM, a GI50 [44] of 2.01 µM and a TGI [44] of 3.98 µM. It also gave a GI50 [46] of 1.7 µM, a TGI [46] of 3.32 µM and a GI50 [47] of 1.4 µM. The TGI [47] was 3.03 µM, the GI50 [50] was 1.68 µM and the TGI [50] was 3.27 µM.

Compound Cn1cc(NC(=O)c2cc(NC(=O)c3cc(NC=O)cn3C)cn2C)cc1C(=O)NCCC(=N)N has a TGI [2] of over 100 µM, a TGI [4] of over 100 µM and a TGI [5] of over 100 µM. The TGI [6] was over 100 µM, the TGI [7] was over 100 µM and the TGI [8] was over 100 µM. The TGI [9] was over 100 µM, the TGI [10] was over 100 µM and the TGI [57] was over 100 µM. For the same compound, the TGI [11] was over 100 µM, the TGI [12] was over 100 µM and the TGI [13] was over 100 µM. It also gave a TGI [15] of over 100 µM, a TGI [16] of over 100 µM and a TGI [17] of over 100 µM. The TGI [18] was over 100 µM, the TGI [19] was over 100 µM and the TGI [20] was over 100 µM. For the same compound, the TGI [21] was over 100 µM, the TGI [22] was over 100 µM and the TGI [23] was over 100 µM. It also gave a TGI [24] of over 100 µM, a TGI [25] of over 100 µM and a TGI [26] of over 100 µM. It also gave a TGI [27] of over 100 µM, a TGI [53] of over 100 µM and a TGI [28] of over 100 µM. It also gave a TGI [29] of over 100 µM, a TGI [30] of over 100 µM and a TGI [32] of over 100 µM. It also gave a TGI [33] of over 100 µM, a TGI [34] of over 100 µM and a TGI [35] of over 100 µM. It also gave a TGI [36] of over 100 µM, a TGI [37] of over 100 µM and a TGI [38] of over 100 µM. For the same compound, the TGI [39] was over 100 µM, the TGI [40] was over 100 µM and the TGI [54] was over 100 µM. It also gave a TGI [41] of over 100 µM, a TGI [42] of over 100 µM and a TGI [43] of over 100 µM. For the same compound, the TGI [56] was over 100 µM, the TGI [44] was over 100 µM and the TGI [46] was over 100 µM. It also gave a TGI [47] of over 100 µM, a TGI [48] of over 100 µM and a TGI [49] of over 100 µM. For the same compound, the TGI [50] was over 100 µM, the TGI [51] was over 100 µM and the TGI [52] was over 100 µM.

Cc1ccc(O)c(N=Nc2c(O)cc(S(=O)(=O)O)c3ccccc23)c1 was tested, and the TGI [1] was over 100 µM, the TGI [2] was over 100 µM and the TGI [4] was over 100 µM. It also gave a TGI [5] of over 100 µM, a TGI [6] of over 100 µM and a TGI [7] of over 100 µM. The TGI [8] was over 100 µM, the TGI [9] was over 100 µM and the TGI [10] was over 100 µM. It also gave a TGI [11] of 86.5 µM, a TGI [12] of over 100 µM and a TGI [13] of over 100 µM. For the same compound, the TGI [14] was over 100 µM, the TGI [15] was over 100 µM and the TGI [16] was over 100 µM. The TGI [18] was 77.6 µM, the TGI [19] was over 100 µM and the TGI [20] was over 100 µM. It also gave a TGI [21] of over 100 µM, a TGI [22] of over 100 µM and a TGI [23] of over 100 µM. It also gave a TGI [24] of over 100 µM, a TGI [25] of 95.3 µM and a TGI [26] of over 100 µM. The TGI [27] was 79.6 µM, the TGI [28] was over 100 µM and the TGI [29] was 64 µM. For the same compound, the TGI [30] was over 100 µM, the TGI [31] was over 100 µM and the TGI [32] was over 100 µM. It also gave a TGI [35] of 76.2 µM, a TGI [36] of over 100 µM and a TGI [37] of over 100 µM. The TGI [38] was over 100 µM, the TGI [39] was over 100 µM and the TGI [40] was over 100 µM. The TGI [41] was over 100 µM, the TGI [42] was over 100 µM and the TGI [43] was over 100 µM. For the same compound, the TGI [55] was over 100 µM, the TGI [44] was over 100 µM and the TGI [45] was over 100 µM. It also gave a TGI [46] of over 100 µM, a TGI [47] of over 100 µM and a TGI [48] of over 100 µM. For the same compound, the TGI [49] was 62.5 µM, the TGI [50] was over 100 µM and the TGI [51] was over 100 µM. It also gave a TGI [52] of over 100 µM.
